# Laboratory results published in US8076352B2, “Administration of carboline derivatives useful in the treatment of cancer and other diseases” (PTC Therapeutics, Inc., priority 2004, dated 2011).
# Test system: hypoxia-inducible endogenous VEGF expression in HeLa cells
# Test: Hypoxia-inducible endogenous VEGF expression, VEGF ELISA of conditioned media (dose-response EC50)
# Format: cell-based
# Settings: HeLa cells, hypoxic conditions (1% O2)
# Outline: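 Secreted VEGF was quantified by ELISA against a per-assay standard curve after HeLa cells spent 24-48 h in 1% O2, 5% CO2, N2 balance with or without compound. Across a series of, e.g., seven concentrations, percentage inhibition (max 100%, min 0%) gave EC50 and CC50 values.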
row,SMILES,EC50
1,O=C(Oc1ccc(Cl)cc1)N1CCc2c([nH]c3ccc(Cl)cc23)C1c1ccc(S(=O)(=O)N2CCOCC2)cc1 (centres unmarked) [Compound 450],8 to 40 nM
2,CN(C)CCCOc1ccc(C2c3[nH]c4ccc(Cl)cc4c3CCN2C(=O)Oc2ccc(Br)cc2)cc1 (centres unmarked) [Compound 468],8 to 40 nM
3,CN(C)CCCOc1ccc(C2c3[nH]c4ccc(Cl)cc4c3CCN2C(=O)Oc2ccc(Cl)cc2)cc1 (centres unmarked) [Compound 479],40 to 200 nM

# Same assay, conditions: Homo sapiens, HeLa cells, hypoxic conditions (1% O2)
row,SMILES,EC50
1,CCOC(=O)N1CCc2c([nH]c3ccc(Cl)cc23)C1c1ccc(OCCCN2CCCC2)cc1 (centres unmarked) [Compound 449],8 to 40 nM
2,O=C(Oc1ccc(F)cc1)N1CCc2c([nH]c3ccc(Cl)cc23)C1c1ccc(F)cc1 (centres unmarked) [Compound 452],8 to 40 nM
3,O=C(CN1CCOCC1)Nc1ccc(C2c3[nH]c4ccc(Cl)cc4c3CCN2C(=O)Oc2ccc(Cl)cc2)cc1 (centres unmarked) [Compound 454],8 to 40 nM
4,CN(C)CCCOc1ccc(C2c3[nH]c4ccc(Cl)cc4c3CCN2C(=O)OCCF)cc1 (centres unmarked) [Compound 456],8 to 40 nM
5,Nc1ncc(C2c3[nH]c4ccc(Cl)cc4c3CCN2C(=O)Oc2ccc(Cl)cc2)cn1 (centres unmarked) [Compound 457],8 to 40 nM
6,CCOC(=O)N1CCc2c([nH]c3ccc(Cl)cc23)C1c1ccc(OCCCN(C)C)cc1 (centres unmarked) [Compound 458],8 to 40 nM
7,CC(C)OC(=O)N1CCc2c([nH]c3ccc(Cl)cc23)C1c1ccc(OCCCN(C)C)cc1 (centres unmarked) [Compound 459],8 to 40 nM
8,O=C(Oc1ccc(Cl)cc1)N1CCc2c([nH]c3ccc(Cl)cc23)C1c1ccc(OCC2CO2)cc1 (centres unmarked) [Compound 460],8 to 40 nM
9,CCOC(=O)N1CCc2c([nH]c3ccc(Cl)cc23)C1c1ccc(C(=O)NCC2COC(C)(C)O2)cc1 (centres unmarked) [Compound 461],8 to 40 nM
10,O=C(Oc1ccc(Cl)cc1)N1CCc2c([nH]c3ccc(Cl)cc23)C1c1ccc(OCC(O)CN2CCCC2)cc1 (centres unmarked) [Compound 462],8 to 40 nM
11,CCOC(=O)N1CCc2c([nH]c3ccc(Cl)cc23)C1c1ccc(C(=O)N2CCN(CCOC)CC2)cc1 (centres unmarked) [Compound 469],8 to 40 nM
12,CCOC(=O)N1CCc2c([nH]c3ccc(Cl)cc23)C1c1cnc(N(C)C)nc1 (centres unmarked) [Compound 476],40 to 200 nM
13,CCOC(=O)N1CCc2c([nH]c3ccc(Br)cc23)C1c1ccc(C(=O)N2CCN(C)CC2)cc1 (centres unmarked) [Compound 478],40 to 200 nM
14,CCOC(=O)N1CCc2c([nH]c3ccc(Cl)cc23)C1c1ccc(C(=O)N2CCN(C3CCCCC3)CC2)cc1 (centres unmarked) [Compound 481],40 to 200 nM
15,CCOC(=O)N1CCc2c([nH]c3ccc(Br)cc23)C1c1ccc(C(=O)N(C)C)cc1 (centres unmarked) [Compound 483],40 to 200 nM
16,CCOC(=O)N1CCc2c([nH]c3ccc(Br)cc23)C1c1ccc(C(=O)NCCN2CCOCC2)cc1 (centres unmarked) [Compound 488],40 to 200 nM
17,CN(C)CC(=O)Nc1ccc(C2c3[nH]c4ccc(Cl)cc4c3CCN2C(=O)Oc2ccc(Cl)cc2)cc1 (centres unmarked) [Compound 491],40 to 200 nM
18,CCOC(=O)N1CCc2c([nH]c3ccc(Cl)cc23)C1c1ccc(C(=O)N2CCOCC2)cc1 (centres unmarked) [Compound 492],40 to 200 nM

row,SMILES,EC50
1,CN(C)CCCOc1ccc(C2c3[nH]c4ccc(Cl)cc4c3CCN2C(=O)Oc2ccccc2)cc1 (centres unmarked) [Compound 493],40 to 200 nM
2,CCOC(=O)N1CCc2c([nH]c3ccc(Br)cc23)C1c1cnc(NC)nc1 (centres unmarked) [Compound 496],40 to 200 nM
3,CSCCC1NCCc2c1[nH]c1ccc(Cl)cc21 (centres unmarked) [Compound 497],40 to 200 nM
4,CCOC(=O)N1CCc2c([nH]c3ccc(Cl)cc23)C1c1coc2ccccc2c1=O (centres unmarked) [Compound 499],40 to 200 nM
5,C=CC(=O)Nc1ccc(C2c3[nH]c4ccc(Cl)cc4c3CCN2C(=O)Oc2ccc(Cl)cc2)cc1 (centres unmarked) [Compound 500],40 to 200 nM
6,COc1ccc(OC(=O)N2CCc3c([nH]c4ccc(Cl)cc34)C2c2ccc(OCCCN(C)C)cc2)cc1 (centres unmarked) [Compound 501],40 to 200 nM
7,Cc1ccc(OC(=O)N2CCc3c([nH]c4ccc(Cl)cc34)C2c2ccc(OCCCN(C)C)cc2)cc1 (centres unmarked) [Compound 502],40 to 200 nM
8,CNc1ncc(C2c3[nH]c4ccc(Br)cc4c3CCN2C(=O)Oc2ccc(OC)cc2)cn1 (centres unmarked) [Compound 503],40 to 200 nM
9,CCOC(=O)N1CCc2c([nH]c3ccc(Br)cc23)C1c1ccc(C(N)=O)cc1 (centres unmarked) [Compound 505],40 to 200 nM
10,CCOC(=O)N1CCc2c([nH]c3ccc(Cl)cc23)C1c1cnc(NC)nc1 (centres unmarked) [Compound 506],40 to 200 nM
11,CCOC(=O)N1CCc2c([nH]c3ccc(Cl)cc23)C1c1ccc(C(=O)NCCN2CCOCC2)cc1 (centres unmarked) [Compound 509],40 to 200 nM
12,CCCC1c2[nH]c3ccc(Cl)cc3c2CCN1C(=O)OCC (centres unmarked) [Compound 510],40 to 200 nM
13,CCCCCCC1c2[nH]c3ccc(Cl)cc3c2CCN1C(=O)OCC (centres unmarked) [Compound 515],200 to 1000 nM
14,CCOC(=O)N1CCc2c([nH]c3ccc(Br)cc23)C1c1ccc(C(=O)N(C)CCN(C)C)cc1 (centres unmarked) [Compound 516],200 to 1000 nM
15,CNc1ncc(C2c3[nH]c4ccc(Cl)cc4c3CCN2C(=O)Oc2ccc(OC)cc2)cn1 (centres unmarked) [Compound 517],200 to 1000 nM
16,CCOC(=O)N1CCc2c([nH]c3ccc(Cl)cc23)C1c1ccc(C(=O)N(C)CCc2ccccn2)cc1 (centres unmarked) [Compound 518],200 to 1000 nM
17,O=C(O)c1ccc(C2c3[nH]c4ccc(Br)cc4c3CCN2C(=O)Oc2ccc(Cl)cc2)cc1 (centres unmarked) [Compound 519],200 to 1000 nM
18,CCOC(=O)N1CCc2c([nH]c3ccc(Cl)cc23)C1c1ccc(C(=O)NCCC2CCCN2C)cc1 (centres unmarked) [Compound 521],200 to 1000 nM

# Continued, values first:
row,EC50,SMILES
1,8 to 40 nM,COc1ccc(OC(=O)N2CCc3c([nH]c4ccc(Cl)cc34)C2c2cnc(N(C)C)nc2)cc1 (centres unmarked) [Compound 445]
2,8 to 40 nM,COc1ccc(C2c3[nH]c4ccc(Cl)cc4c3CCN2C(=O)Cc2ccc(Cl)cc2)cc1 (centres unmarked) [Compound 447]
3,8 to 40 nM,CC(C)(C)OC(=O)N[C@@H](Cc1ccccc1)C(=O)Oc1ccc(C2c3[nH]c4ccc(Cl)cc4c3CCN2C(=O)OC(C)(C)C)cc1 (some centres unmarked) [Compound 451]
4,8 to 40 nM,CCOC(=O)N1CCC(NC(=O)c2ccc(C3c4[nH]c5ccc(Cl)cc5c4CCN3C(=O)OCC)cc2)CC1 (centres unmarked) [Compound 453]
5,8 to 40 nM,COc1ccc(OC(=O)N2CCc3c([nH]c4ccc(Cl)cc34)C2c2ccc(S(=O)(=O)N3CCOCC3)cc2)cc1 (centres unmarked) [Compound 455]
6,8 to 40 nM,CC(=O)Oc1ccc(C2c3[nH]c4ccc(Cl)cc4c3CCN2C(=O)Oc2ccc(Cl)cc2)cc1 (centres unmarked) [Compound 463]
7,8 to 40 nM,COc1ccc(C2c3[nH]c4ccc(Cl)cc4c3CCN2C(=O)c2ccc(-c3ccccc3)cc2)cc1 (centres unmarked) [Compound 464]
8,8 to 40 nM,COCCOc1ccc(C2c3[nH]c4ccc(Cl)cc4c3CCN2C(=O)Oc2ccc(OC)cc2)cc1 (centres unmarked) [Compound 465]
9,8 to 40 nM,CCOC(=O)N1CCc2c([nH]c3ccc(Br)cc23)C1c1ccc(C(=O)N2CCN(CCO)CC2)cc1 (centres unmarked) [Compound 466]
10,8 to 40 nM,CCOC(=O)Nc1ccc(C2c3[nH]c4ccc(Cl)cc4c3CCN2C(=O)Oc2ccc(Cl)cc2)cc1 (centres unmarked) [Compound 467]
11,8 to 40 nM,COCCOC(=O)Nc1ccc(C2c3[nH]c4ccc(Cl)cc4c3CCN2C(=O)Oc2ccc(Cl)cc2)cc1 (centres unmarked) [Compound 470]
12,8 to 40 nM,CCOC(=O)N1CCc2c([nH]c3ccc(Cl)cc23)C1CC(C)C (centres unmarked) [Compound 472]
13,40 to 200 nM,CCOC(=O)N1CCc2c([nH]c3ccc(Cl)cc23)C1c1ccc(C(=O)N2CCN(CC)CC2)cc1 (centres unmarked) [Compound 473]
14,40 to 200 nM,CCOC(=O)N1CCc2c([nH]c3ccc(Br)cc23)C1c1ccc(CN2CCN(C)CC2)cc1 (centres unmarked) [Compound 474]
15,40 to 200 nM,CN(C)c1ncc(C2c3[nH]c4ccc(Cl)cc4c3CCN2C(=O)Oc2ccc(Cl)cc2)cn1 (centres unmarked) [Compound 475]
16,40 to 200 nM,CC(C)C1NCCc2c1[nH]c1ccc(Cl)cc21 (centres unmarked) [Compound 477]
17,40 to 200 nM,CCOC(=O)N1CCc2c([nH]c3ccc(Br)cc23)C1c1ccc(C(=O)NC)cc1 (centres unmarked) [Compound 480]
18,40 to 200 nM,CC(C)C(=O)Nc1ccc(C2c3[nH]c4ccc(Cl)cc4c3CCN2C(=O)Oc2ccc(Cl)cc2)cc1 (centres unmarked) [Compound 482]

row,EC50,SMILES
1,40 to 200 nM,CCOC(=O)N1CCc2c([nH]c3ccc(Br)cc23)C1c1ccc(C(=O)N2CCCN(C)CC2)cc1 (centres unmarked) [Compound 484]
2,40 to 200 nM,COC(=O)C(=O)N1CCc2c([nH]c3ccc(Cl)cc23)C1c1ccc(OC)cc1 (centres unmarked) [Compound 485]
3,40 to 200 nM,CCOC(=O)N1CCc2c([nH]c3ccc(Cl)cc23)C1CC(C)(C)C (centres unmarked) [Compound 486]
4,40 to 200 nM,CCOC(=O)N1CCc2c([nH]c3ccc(Cl)cc23)C1c1ccc(S(=O)(=O)N2CCOCC2)cc1 (centres unmarked) [Compound 487]
5,40 to 200 nM,CC(C)OC(=O)Nc1ccc(C2c3[nH]c4ccc(Cl)cc4c3CCN2C(=O)Oc2ccc(Cl)cc2)cc1 (centres unmarked) [Compound 489]
6,40 to 200 nM,CCOC(=O)N1CCc2c([nH]c3ccc(Br)cc23)C1c1ccc(C(=O)NCCO)cc1 (centres unmarked) [Compound 490]
7,40 to 200 nM,CCOC(=O)N1CCc2c([nH]c3ccc(Cl)cc23)C1c1ccc(C(=O)NCC2CCCO2)cc1 (centres unmarked) [Compound 494]
8,40 to 200 nM,CCOC(=O)N1CCc2c([nH]c3ccc(Cl)cc23)C1c1ccc(C(=O)N2CCN(C)CC2)cc1 (centres unmarked) [Compound 498]
9,40 to 200 nM,CCOC(=O)N1CCc2c([nH]c3ccc(Cl)cc23)C1C1CC=CCC1 (centres unmarked) [Compound 504]
10,40 to 200 nM,CCOC(=O)N1CCc2c([nH]c3ccc(Cl)cc23)C1CC(C)c1ccccc1 (centres unmarked) [Compound 508]
11,40 to 200 nM,CCOC(=O)N1CCc2c([nH]c3ccc(Cl)cc23)C1CCc1ccccc1 (centres unmarked) [Compound 511]
12,40 to 200 nM,CCOC(=O)N1CCc2c([nH]c3ccc(Cl)cc23)C1c1ccc(C(=O)NCCCN2CCCC2=O)cc1 (centres unmarked) [Compound 512]
13,40 to 200 nM,CCOC(=O)N1CCc2c([nH]c3ccc(Cl)cc23)C1c1ccsc1 (centres unmarked) [Compound 513]
14,40 to 200 nM,CCOC(=O)N1CCc2c([nH]c3ccc(Cl)cc23)C1c1ccc(C(=O)N2CCCN(C)CC2)cc1 (centres unmarked) [Compound 514]
15,200 to 1000 nM,CCOC(=O)N1CCc2c([nH]c3ccc(Cl)cc23)C1c1cccc(C(=O)N(C)C)c1 (centres unmarked) [Compound 520]
16,200 to 1000 nM,CCOC(=O)N1CCc2c([nH]c3ccc(Cl)cc23)C1C(C)Cc1ccc(C(C)C)cc1 (centres unmarked) [Compound 523]
17,200 to 1000 nM,CCOC(=O)N1CCc2c([nH]c3ccc(Cl)cc23)C1c1cccc(C(=O)NC)c1 (centres unmarked) [Compound 524]
